In patent US5061729A, “Pharmaceutical composition and process for preparing the same” (priority 1988, dated 1991):
Read-outs that look alike come from different tables or passages of the source.

What was measured:
[1] = system: pathogenic micro-organisms occurring in the discharges of patients suffering from chronic otitis; experiment: treatment of the ear discharges by antibacterial agents (sensitivity, Table 2); type: cell-based; conditions: for A = therapeutically active (sensitive) / M = moderately active / R = inactive (resistant): number of cases of 510 examinations; for Act. = activity %: share of active cases, 510 examinations
Experimental: In the Department for Otorhinolaryngology of the Medical University of Debrecen, adult and child patients were examined to identify the types of pathogenic micro-organisms occurring in the discharges of patients suffering from chronic otitis (otitis media chronica); the discharges of 510 patients were analyzed for the bacterial infection.
Symbols used in Table 2:
0 = number of the cases not examined
A = therapeutically active (sensitive)

[2] = rats; oral administration; cited from earlier work
[3] = mice; oral administration; cited from earlier work
[4] = single-component treatment: aqueous solutions of sulfhydryl compounds; type: in vivo, patients; conditions: acetylcysteine solution
[5] = dogs; oral administration; cited from earlier work
[6] = mucolytic (viscosity-reducing) effect of sulfhydryl compounds; conditions: comparison of compounds containing a sulfhydryl group
[7] = system: several gram-positive and gram-negative bacteria such as Pseudomonas aeruginosa; conditions: in vitro conditions; M. F. Parry et al.; cited from earlier work
[8] = cited from earlier work
[9] = single-component treatment: 1% tobramycin solution in external otitis; type: in vivo, patients; conditions: 1% solution
Description: (§1) Several compositions according to the invention were also studied with omitting one active ingredient of the composition in order to support the progressive character of the multi-active-component type composition according to the invention. These experiments led to the following results.

[10] = single-component treatment: 1% tobramycin solution in chronic mesotympanic otitis; type: in vivo, patients; conditions: 1% solution
Description: as §1

[11] = with sulfhydryl-containing compounds, particularly acetylcysteine

Row | Compound | A = therapeutically active (sensitive) [1] | M = moderately active [1] | R = inactive (resistant) [1] | Act. = activity % [1] [%] | also measured
1 | CO[C@H]1C[C@H](O[C@H]2[C@H](C)[C@@H](O[C@@H]3O[C@H](C)C[C@H](N(C)C)[C@H]3O)[C@@H](C)C[C@@]3(CO3)C(=O)[C@H](C)[C@@H](O)[C@@H](C)[C@@H](C)OC(=O)[C@@H]2C)O[C@@H](C)[C@@H]1O [Oleandomycin] | 114 | 4 | 179 | 39.7 | –
2 | CC(=O)N[C@@H](CS)C(=O)O [N-acetyl-L-cysteine] | – | – | – | – | LD50 [2]: 6000 mg/kg of body-weight; LD50 [3]: 3000 mg/kg of body-weight; character of the discharge under treatment [4]: rather took the form of a precipitate; LD50 [5]: 1000 mg/kg of body-weight; mucolytic effect [6]: most useful mucolytic agent; synergistic effect with several antibiotics [7]: shows a synergistic effect with several antibiotics
3 | O=C(Cc1cccs1)N[C@@H]1C(=O)N2C(C(=O)[O-])=C(C[n+]3ccccc3)CS[C@H]12 [Cephaloridin] | 170 | 27 | 182 | 51.9 | –
4 | N[C@@H](CSCC(=O)O)C(=O)O [carbocysteine] | – | – | – | – | mucolytic effect [6]: mucolytic effect can also be shown
5 | O=C(N[C@H](CO)[C@H](O)c1ccc([N+](=O)[O-])cc1)C(Cl)Cl [Chloramphenicol] | 106 | 11 | 197 | 37.2 | –
6 | N[C@@H](CCC(=O)N[C@@H](CS)C(=O)NCC(=O)O)C(=O)O [glutathione] | – | – | – | – | mucolytic effect [6]: mucolytic effect can also be shown
7 | [H]/N=C(/N)N[C@H]1[C@H](O)[C@@H](O)[C@H](O[C@@H]2O[C@@H](C)[C@](O)(C=O)[C@H]2O[C@@H]2O[C@@H](CO)[C@H](O)[C@@H](O)[C@@H]2NC)[C@@H](N/C(N)=N\[H])[C@@H]1O [Streptomycin] | 39 | 42 | 87 | 48.2 | –
8 | COc1cccc(OC)c1C(=O)N[C@@H]1C(=O)N2[C@@H]1SC(C)(C)[C@@H]2C(=O)O [Meticillin] | 146 | 27 | 95 | 64.6 | –
9 | Polymyxin B | 69 | 8 | 103 | 42.7 | –
10 | CCN(CC)C(=S)SSC(=S)N(CC)CC [disulfiram] | – | – | – | – | mucolytic effect [6]: mucolytic effect can also be shown
11 | Gentamycin | 65 | 72 | 118 | 53.7 | –
12 | Cc1onc(-c2ccccc2)c1C(=O)N[C@@H]1C(=O)N2[C@@H]1SC(C)(C)[C@@H]2C(=O)O [Oxacillin] | 191 | 13 | 77 | 72.6 | –
13 | CC1(C)S[C@@H]2[C@H](NC(=O)Cc3ccccc3)C(=O)N2[C@H]1C(=O)O [Penicillin] | 67 | 22 | 218 | 29.4 | –
14 | CN(C)[C@@H]1C(=O)C(C(N)=O)=C(O)[C@@]2(O)C(=O)C3=C(O)c4c(O)cccc4[C@@](C)(O)[C@H]3C[C@@H]12 [Tetracyclin] | 79 | 16 | 279 | 25.4 | –
15 | CC1(C)S[C@@H]2[C@H](NC(=O)[C@H](N)c3ccccc3)C(=O)N2[C@H]1C(=O)O [Ampicillin] | 72 | 11 | 120 | 40.8 | –
16 | CC(C)(CO)[C@@H](O)C(=O)NCCC(=O)NCCS [pantetheine] | – | – | – | – | mucolytic effect [6]: mucolytic effect can also be shown
17 | O[C@H](CS)[C@@H](O)CS [dithioerythritol] | – | – | – | – | mucolytic effect [6]: mucolytic effect can also be shown
18 | C[C@H]1c2cccc(O)c2C(O)=C2C(=O)[C@]3(O)C(O)=C(C(N)=O)C(=O)[C@@H](N(C)C)[C@@H]3[C@@H](O)[C@@H]21 [doxycyclin] | – | – | – | – | influence of sulfhydryl-containing compounds on absorption from the stomach [8, 11]: not disadvantageously influenced by the sulfhydryl-containing compounds
19 | CC1(C)S[C@@H]2[C@H](NC(=O)[C@H](N)c3ccc(O)cc3)C(=O)N2[C@H]1C(=O)O [amoxicillin] | – | – | – | – | influence of sulfhydryl-containing compounds on absorption from the stomach [8, 11]: not disadvantageously influenced by the sulfhydryl-containing compounds
20 | CC1(C)S[C@@H]2[C@H](NC(=O)C(C(=O)O)c3ccccc3)C(=O)N2[C@H]1C(=O)O (stereo partly shown) [Carbenicillin] | 137 | 22 | 91 | 63.6 | –
21 | NC[C@H]1O[C@H](O[C@H]2[C@H](O)[C@@H](O[C@H]3O[C@H](CO)[C@@H](O)[C@H](N)[C@H]3O)[C@H](N)C[C@@H]2N)[C@H](N)C[C@@H]1O [Tobramycin, tobramycin] | 116 | 86 | 61 | 79.2 | substantial improvement, % of patients [9]: ≤ 40%; influence of sulfhydryl-containing compounds on absorption from the stomach ([8]; in vivo): not disadvantageously influenced by the sulfhydryl-containing compounds; substantial improvement of the pathological processes, % of patients [10]: about 60%
22 | neomycin | 27 | 13 | 5 | 88.9 | influence of sulfhydryl-containing compounds on absorption from the stomach ([8]; in vivo): not disadvantageously influenced by the sulfhydryl-containing compounds
23 | CC[C@H]1OC(=O)[C@H](C)[C@@H](O[C@H]2C[C@@](C)(OC)[C@@H](O)[C@H](C)O2)[C@H](C)[C@@H](O[C@@H]2O[C@H](C)C[C@H](N(C)C)[C@H]2O)[C@](C)(O)C[C@@H](C)C(=O)[C@H](C)[C@@H](O)[C@]1(C)O [Erythromycin] | 113 | 6 | 208 | 36.4 | influence of sulfhydryl-containing compounds on absorption from the stomach ([8]; in vivo): not disadvantageously influenced by the sulfhydryl-containing compounds
24 | O=C(O)C(S)C(S)C(=O)O (stereo not shown) [dimercaptosuccinate] | – | – | – | – | mucolytic effect [6]: mucolytic effect can also be shown
